In ChEMBL document CHEMBL1201862, “PubChem BioAssay data set” (2004):
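Five concentrations, 48 hours, 96-well plates. GI50 marks 50% less growth.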 Activity calls are given as the source filed them. Cut-off read from the data, not from the text of the source: active = GI50 up to about 1.1 µM and inactive = higher.

How the values were obtained:
Test in all cases: NCI anticancer screen, dose series, 48 h
786-0 = tested on: 786-0
CCRF-CEM = tested on: CCRF-CEM
COLO 205 = tested on: COLO 205
HCT-15 = tested on: HCT-15
HL-60 = tested on: HL-60
LOX IMVI = tested on: LOX IMVI
MOLT-4 = tested on: MOLT-4
NCI-H226 = tested on: NCI-H226
OVCAR-4 = tested on: OVCAR-4
OVCAR-5 = tested on: OVCAR-5
OVCAR-8 = tested on: OVCAR-8
SK-MEL-5 = tested on: SK-MEL-5
SW-620 = tested on: SW-620
UACC-257 = tested on: UACC-257
XF498 = tested on: XF498
DU-145 = tested on: DU-145
MDA-MB-435 = tested on: MDA-MB-435
NCI/ADR-RES = tested on: NCI/ADR-RES
SF-539 = tested on: SF-539
SR = tested on: SR

| SMILES | GI50 (786-0) | GI50 (CCRF-CEM) | GI50 (COLO 205) | GI50 (HCT-15) | GI50 (HL-60) | GI50 (LOX IMVI) | GI50 (MOLT-4) | GI50 (NCI-H226) | GI50 (OVCAR-4) | GI50 (OVCAR-5) | GI50 (OVCAR-8) | GI50 (SK-MEL-5) | GI50 (SW-620) | GI50 (UACC-257) | GI50 (XF498) | GI50 (DU-145) | GI50 (MDA-MB-435) | GI50 (NCI/ADR-RES) | GI50 (SF-539) | GI50 (SR) |
| --- | --- | --- | --- | --- | --- | --- | --- | --- | --- | --- | --- | --- | --- | --- | --- | --- | --- | --- | --- | --- |
| COC/C=C\COC | > 100 µM (inactive) | > 100 µM (inactive) | > 100 µM (inactive) | > 100 µM | > 100 µM (inactive) | > 100 µM (inactive) | > 100 µM (inactive) | > 100 µM (inactive) | > 100 µM (inactive) | > 100 µM (inactive) | > 100 µM (inactive) | > 100 µM (inactive) | > 100 µM (inactive) | > 100 µM (inactive) | > 100 µM (inactive) | – | – | – | – | – |
| O=C1C2C3C=CC(C2C(=O)N1CN1CCOCC1)C1C2C(=O)N(CN4CCOCC4)C(=O)C2C31 (stereo unspecified) | > 42.8 µM (inactive) | 18.7 µM (inactive) | > 43 µM (inactive) | > 42.4 µM | > 40.6 µM (inactive) | > 43.5 µM (inactive) | 18.2 µM (inactive) | > 47.3 µM (inactive) | > 43.9 µM (inactive) | > 59.2 µM (inactive) | > 48.3 µM (inactive) | > 43.2 µM (inactive) | > 46.5 µM (inactive) | > 49.3 µM (inactive) | – | > 100 µM (inactive) | > 100 µM (inactive) | > 100 µM (inactive) | > 56.8 µM (inactive) | 30.8 µM (inactive) |
| O=C(NCCCCCN1CCC2(CCCCC2)CC1)C(C1CCCCC1)C1CCCCC1 | 5.08 µM (inactive) | 2.99 µM (inactive) | 1.45 µM (inactive) | 3.08 µM | 1.56 µM (inactive) | 2.7 µM (inactive) | 1.9 µM (inactive) | 3.67 µM (inactive) | 3.59 µM (inactive) | 6.22 µM (inactive) | 2.72 µM (inactive) | 1.61 µM (inactive) | 2.6 µM (inactive) | 1.82 µM (inactive) | – | 4.6 µM (inactive) | 1.85 µM (inactive) | 3.18 µM (inactive) | 1.91 µM (inactive) | 1.57 µM (inactive) |
| COc1ccc2nc(NC(=O)C(=O)NNC(=O)c3ccncc3)sc2c1 | > 100 µM (inactive) | > 100 µM (inactive) | > 100 µM (inactive) | > 100 µM | > 100 µM (inactive) | > 100 µM (inactive) | – | > 100 µM (inactive) | > 100 µM (inactive) | – | > 100 µM (inactive) | > 100 µM (inactive) | > 100 µM (inactive) | > 100 µM (inactive) | > 100 µM (inactive) | – | – | – | > 100 µM (inactive) | – |
| CCc1nnc(S)n1/N=C\c1ccc(-c2ccccc2[N+](=O)[O-])o1 | 45.6 µM (inactive) | 42.1 µM (inactive) | 29.9 µM (inactive) | 30.3 µM | 35.6 µM (inactive) | 28 µM (inactive) | 19.4 µM (inactive) | 12.1 µM (inactive) | 44.8 µM (inactive) | 50.7 µM (inactive) | 33.1 µM (inactive) | 12 µM (inactive) | 41.7 µM (inactive) | 76.4 µM (inactive) | – | 53.5 µM (inactive) | 15.4 µM (inactive) | 26.3 µM (inactive) | 29.8 µM (inactive) | 16.9 µM (inactive) |
| CN(C)/C=N/S(=O)(=O)c1nn2c(C=O)c(-c3ccc(-c4ccc([N+](=O)[O-])cc4)o3)nc2s1 | 1.07 µM (active) | 0.426 µM (active) | 1.99 µM (inactive) | 2.21 µM | 0.807 µM (active) | 2.33 µM (inactive) | 1.19 µM (inactive) | 20.5 µM (inactive) | 3.54 µM (inactive) | 4.04 µM (inactive) | 8.04 µM (inactive) | 4.76 µM (inactive) | 0.933 µM (active) | 7.41 µM (inactive) | – | 3.64 µM (inactive) | 2.68 µM (inactive) | 8.15 µM (inactive) | 2.15 µM (inactive) | 0.883 µM (active) |
| Cc1cccc2c1c(=O)c1c(O)cc(O)cc1n2C | > 100 µM (inactive) | > 100 µM (inactive) | 30 µM (inactive) | > 100 µM | > 100 µM (inactive) | 82 µM (inactive) | 70.5 µM (inactive) | > 100 µM (inactive) | > 100 µM (inactive) | > 100 µM (inactive) | > 100 µM (inactive) | 34.2 µM (inactive) | > 100 µM (inactive) | > 100 µM (inactive) | – | > 100 µM (inactive) | > 100 µM (inactive) | > 100 µM (inactive) | > 100 µM (inactive) | > 100 µM (inactive) |
| COc1ccc(C2OC(=O)c3ccc4ccccc4c32)c(C)c1 (stereo unspecified) | 12.7 µM (inactive) | 22.4 µM (inactive) | 4.36 µM (inactive) | 4.1 µM | 3.69 µM (inactive) | 7.89 µM (inactive) | 7.73 µM (inactive) | 13.9 µM (inactive) | 19.6 µM (inactive) | 19.9 µM (inactive) | 14.2 µM (inactive) | 3.54 µM (inactive) | 3.96 µM (inactive) | 27.5 µM (inactive) | – | 22.2 µM (inactive) | 2.36 µM (inactive) | 2.37 µM (inactive) | 12.2 µM (inactive) | 3.86 µM (inactive) |
| O=C1C[C@H]2[C@H](c3ccc(Br)cc3)[C@H]3C(=O)c4ccccc4NC(=O)[C@@H]3[C@@]2(O)c2ccccc2N1 | 19.4 µM (inactive) | 10.6 µM (inactive) | 14.8 µM (inactive) | 27.9 µM | 3.09 µM (inactive) | 13.8 µM (inactive) | 3.94 µM (inactive) | 14.4 µM (inactive) | 12.5 µM (inactive) | 27.2 µM (inactive) | 19 µM (inactive) | 19.3 µM (inactive) | 19.7 µM (inactive) | 20.2 µM (inactive) | – | 24 µM (inactive) | 10 µM (inactive) | 14.9 µM (inactive) | 19.5 µM (inactive) | 7.41 µM (inactive) |
| CC1(C)CC2=C(Sc3ccccc3N2)C(=O)C1C(=O)C(=O)Nc1cc(Cl)ccc1Cl (stereo unspecified) | > 100 µM (inactive) | > 100 µM (inactive) | > 100 µM (inactive) | > 100 µM | > 100 µM (inactive) | > 100 µM (inactive) | 60 µM (inactive) | > 100 µM (inactive) | 30.1 µM (inactive) | > 100 µM (inactive) | > 100 µM (inactive) | 42.1 µM (inactive) | > 100 µM (inactive) | > 100 µM (inactive) | – | > 100 µM (inactive) | > 100 µM (inactive) | 63.2 µM (inactive) | > 100 µM (inactive) | > 100 µM (inactive) |
| Cn1c(=S)sc2nc3ccccc3n2c1=S | 12.7 µM (inactive) | 3.52 µM (inactive) | 9.51 µM (inactive) | 13.2 µM | 2.49 µM (inactive) | 5.97 µM (inactive) | 5.36 µM (inactive) | 21.4 µM (inactive) | 16 µM (inactive) | 15.3 µM (inactive) | 14.3 µM (inactive) | 12.2 µM (inactive) | 12 µM (inactive) | 12.3 µM (inactive) | – | 5.35 µM (inactive) | 7.45 µM (inactive) | 13.4 µM (inactive) | 12.8 µM (inactive) | 2.37 µM (inactive) |
| CCOC(=O)c1cc(Br)c(-c2onc(C)c2Br)[nH]1 | 21.6 µM (inactive) | > 100 µM (inactive) | > 100 µM (inactive) | > 100 µM | > 100 µM (inactive) | 98.6 µM (inactive) | > 100 µM (inactive) | 30.1 µM (inactive) | 88.1 µM (inactive) | > 100 µM (inactive) | 27.6 µM (inactive) | 42.1 µM (inactive) | > 100 µM (inactive) | 93.5 µM (inactive) | – | > 100 µM (inactive) | > 100 µM (inactive) | 40.6 µM (inactive) | 31.6 µM (inactive) | > 100 µM (inactive) |
| OCC1OC(n2cnc3c(/C=C(/O)c4ccccc4)ncnc32)C(O)C1O (stereo unspecified) | 2.94 µM (inactive) | 0.61 µM (active) | 0.944 µM (active) | 1.05 µM | 0.165 µM (active) | 1.63 µM (inactive) | 1.71 µM (inactive) | 5.38 µM (inactive) | 2.84 µM (inactive) | 3.98 µM (inactive) | 2.17 µM (inactive) | 5.65 µM (inactive) | 0.875 µM (active) | 3.89 µM (inactive) | – | 1.61 µM (inactive) | 2.25 µM (inactive) | 2.11 µM (inactive) | 4.93 µM (inactive) | 1.35 µM (inactive) |
| Cc1cc[n+]2c(c1)-c1cc(C)cc[n+]1CC2 | > 100 µM (inactive) | > 22.7 µM (inactive) | 22.6 µM (inactive) | > 100 µM | > 100 µM (inactive) | > 100 µM (inactive) | > 100 µM (inactive) | > 100 µM (inactive) | > 100 µM (inactive) | > 100 µM (inactive) | > 66.5 µM (inactive) | > 100 µM (inactive) | > 100 µM (inactive) | > 100 µM (inactive) | – | > 100 µM (inactive) | > 100 µM (inactive) | > 100 µM (inactive) | > 100 µM (inactive) | > 100 µM (inactive) |
| CC(=N\N=C\c1ccccn1)/C(C)=N/N=C(C)/C(C)=N/N=C(C)/C(C)=N/N=C/c1ccccn1 | > 100 µM (inactive) | 3.7 µM (inactive) | > 100 µM (inactive) | > 100 µM | > 100 µM (inactive) | > 100 µM (inactive) | > 100 µM (inactive) | > 100 µM (inactive) | > 100 µM (inactive) | > 100 µM (inactive) | > 100 µM (inactive) | > 100 µM (inactive) | > 100 µM (inactive) | > 100 µM (inactive) | – | > 100 µM (inactive) | > 100 µM (inactive) | > 100 µM (inactive) | > 100 µM (inactive) | > 100 µM (inactive) |
